Laboratory results taken from EP4722209A1 (Beijing Shenogen Pharma Group, priority 2023, dated 2024).

How the values were obtained:
MCF-7 cells = assay: Inhibition of MCF-7 cell proliferation (CellTiter-Glo cell viability); assay type: cell-based; conditions: Homo sapiens, MCF7, 144 h, 6 days treatment, 1 pM to 10 µM
Protocol: ERα-positive human breast cancer cells MCF-7 (ATCC, HTB-22) were cultured with EMEM medium (ATCC, catalog number 30-2003) containing 10% fetal bovine serum (Thermo Fisher, catalog number 10099141) and 10 µg/mL bovine insulin in 25 cm^2 or 75 cm^2 plastic tissue culture flasks in a 37 °C incubator with 5% CO2. The cells were passaged 2 to 3 times per week.
MCF-7 cells were seeded in 96-well plate at 3×10^3 cells/well with 90 µL culture medium per well, and cultured in a 37 °C incubator with 95% air and 5% CO2. After 24 hours, the test compounds were added: the compounds were serially diluted 10-fold in DMSO starting from 10 mM (dissolved in DMSO) to prepare gradient stock solutions. A complete culture medium containing 1% DMSO was prepared for further dilution, temporarily named as the "dilution buffer." Working solutions were prepared by diluting each stock solution with 99 times the volume of dilution buffer, that is, by adding 1 µL of the 10 mM stock solution to 99 µL of the dilution buffer and mixing thoroughly. Finally, 10 µL of the working solution was added to the cell-seeded culture plate. The final concentration of DMSO in the cell culture medium was 0.2%, and the final concentration of the test compounds ranged from 1 pM to 10 µM. The cells were then incubated at 37 °C for 3 days. The culture medium was removed and replaced with 90µL per well of fresh medium. According to the above compound dilution method, the test compounds were added again. On the 6th day, the CellTiter Glo luminescent cell viability assay kit (Promag, item number G7573) was added for cell viability measurement.
Cell viability was measured using the CellTiter-Glo assay kit, and the half-maximal growth inhibitory concentration (GI50) of the compounds was calculated using the Prism software.
The GI50 values (i.e., the concentration of the test compounds required to inhibit 50% of the cell proliferation) were calculated and shown in Table 2. A corresponds to a GI50 value below 10 nM, B corresponds to a GI50 value greater than 10 nM and less than 100 nM, and C corresponds to GI50 values greater than 100 nM. Table 2. The GI50 values of exemplary compounds in MCF-7 cells

ERα = target: T1, ERα (Homo sapiens, UniProt P03372); assay: ER degradation activity in MCF-7 cells (Western blot, grayscale intensity); assay type: cell-based; conditions: 6 hours treatment, 1 nM to 100 nM, concentration required to degrade 50% of the target protein
T1 construct: host or cells: MCF-7
T1 sequence (P03372 1-595): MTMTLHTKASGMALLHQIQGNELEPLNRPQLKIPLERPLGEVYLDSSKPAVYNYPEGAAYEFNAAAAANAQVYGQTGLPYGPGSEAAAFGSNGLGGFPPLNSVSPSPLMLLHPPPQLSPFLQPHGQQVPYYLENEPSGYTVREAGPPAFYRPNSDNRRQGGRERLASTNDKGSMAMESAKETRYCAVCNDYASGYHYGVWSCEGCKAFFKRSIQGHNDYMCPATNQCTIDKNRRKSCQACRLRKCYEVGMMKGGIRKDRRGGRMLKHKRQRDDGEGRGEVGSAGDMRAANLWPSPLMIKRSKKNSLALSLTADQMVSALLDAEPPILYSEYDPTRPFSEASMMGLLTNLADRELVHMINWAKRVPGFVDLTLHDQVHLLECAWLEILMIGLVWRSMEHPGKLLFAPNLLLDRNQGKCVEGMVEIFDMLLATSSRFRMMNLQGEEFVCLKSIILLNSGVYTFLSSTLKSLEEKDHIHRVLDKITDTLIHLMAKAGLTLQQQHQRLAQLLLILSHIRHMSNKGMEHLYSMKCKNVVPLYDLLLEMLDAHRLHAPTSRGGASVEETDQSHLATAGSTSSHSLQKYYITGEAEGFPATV
Method in brief: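 MCF-7 cells were treated 24 h after seeding with test compounds at 1 nM to 100 nM final (0.2% DMSO) for 6 h at 37 °C. ERα in lysates (30 µg protein) was detected by Western blot with ECL; degradation was quantified from band grayscale intensity and DC50 derived.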

[1] = Body weight of MCF-7/ERα Y537S xenograft mice; assay type: in vivo, female Balb/c nude mice; conditions: 1, 3 and 10 mpk, daily oral gavage, 17 days
Excerpt: (§1) MCF-7/ERα Y537S tumors that had been passaged in mice for more than three but less than ten generations were transplanted as approximately 3×3×3 mm tumor blocks into the subcutaneous right flank of female Balb/c nude mice. When the tumor volume in the tumor-bearing mice reached around 200 mm^3, the mice were randomly divided into four groups according to tumor volume and body weight: vehicle group, 1 mpk group, 3 mpk group, and 10 mpk group, 7 mice in each group. The day of grouping was designated as D0, and daily oral gavage administration began on this day and last for a total of 17 days. The 17th day after administration was designated as Day 17.
(§2) The tumor volume was measured twice weekly using a caliper, and the body weight of the mice was measured using an analytical balance. The length and width of the tumor were measured, and the formula for tumor volume calculation is: Tumor Volume (TV) = 0.5 × length × width× width. The T/C value was calculated based on the tumor volume, where T is the mean relative tumor volume (RTV) of the treated groups, and C is the mean RTV of the vehicle group. The RTV is the ratio of the tumor volume after administration to the tumor volume before administration. The tumor growth inhibition rate (TGITV) (%) = (1 - T/C) × 100%.

[2] = tested on: MCF-7/ERα Y537S xenografts; assay: Anti-tumor activity in MCF-7 xenografts expressing ERα Y537S mutant; assay type: in vivo, female Balb/c nude mice; conditions: 1, 3 and 10 mpk, daily oral gavage, 17 days
Excerpt: as §1, §2

GI50 (MCF-7 cells)	DC50 (ERα)	SMILES	effect on body weight [1]	tumor growth inhibition [2]
10 to 100 nM	< 10 nM	CC1(C)CC(=C(c2ccc(N3CCN(C4CN(c5ccc6c(c5)C(=O)N(C5CCC(=O)NC5=O)C6=O)C4)CC3)cc2)c2ccc3[nH]nc(F)c3c2)CC(C)(C)O1 (stereo not shown) [Compound 2]	–	–
< 10 nM	< 10 nM	CC1(C)CC(=C(c2ccc(N3CCC(CN4CCN(c5ccc6c(c5)C(=O)N(C5CCC(=O)NC5=O)C6=O)CC4)CC3)cc2)c2ccc3[nH]ncc3c2)CC(C)(C)O1 (stereo not shown) [Compound 5]	–	–
< 10 nM	< 10 nM	CC1(C)CC(=C(c2ccc(N3CCC(CN4CCN(c5ccc6c(c5)C(=O)N(C5CCC(=O)NC5=O)C6=O)CC4)CC3)cc2)c2ccc3[nH]nc(F)c3c2)CC(C)(C)O1 (stereo not shown) [Compound 6]	–	–
< 10 nM	< 10 nM	CC1(C)CC(=C(c2ccc(N3CCN(C4CCN(c5ccc6c(c5)C(=O)N(C5CCC(=O)NC5=O)C6=O)CC4)CC3)cc2)c2ccc3[nH]nc(F)c3c2)CC(C)(C)O1 (stereo not shown) [Compound 22]	–	–
< 10 nM	< 10 nM	CC1(C)CC(=C(c2ccc(N3CCC(N4CCN(c5ccc6c(c5)C(=O)N(C5CCC(=O)NC5=O)C6=O)CC4)CC3)cc2)c2ccc3[nH]nc(F)c3c2)CC(C)(C)O1 (stereo not shown) [Compound 31]	–	–
< 10 nM	10 to 100 nM	CC1(C)CC(=C(c2ccc(N3CCC(N4CCN(c5ccc6c(c5)CN(C5CCC(=O)NC5=O)C6=O)CC4)CC3)cc2)c2ccc3[nH]nc(F)c3c2)CC(C)(C)O1 (stereo not shown) [Compound 37]	–	–
< 10 nM	< 10 nM	CC1(C)CC(=C(c2ccc(N3CCC(CNC4CCN(c5ccc6c(c5)CN(C5CCC(=O)NC5=O)C6=O)CC4)CC3)nc2)c2ccc3[nH]nc(F)c3c2)CC(C)(C)O1 (stereo not shown) [Compound 44]	–	–
< 10 nM	< 10 nM	CC1(C)CC(=C(c2ccc(N3CC4(CCN(C5CCN(c6ccc7c(c6)CN(C6CCC(=O)NC6=O)C7=O)CC5)CC4)C3)nc2)c2ccc3[nH]nc(F)c3c2)CC(C)(C)O1 (stereo not shown) [Compound 46]	–	–
> 100 nM	> 100 nM	CC1(C)CC(=C(c2ccc(N3CCC(CN4CCN(c5ccc(N6CCC(=O)NC6=O)cc5)CC4)CC3)nc2)c2ccc3[nH]nc(F)c3c2)CC(C)(C)O1 [Compound 77]	–	–
> 100 nM	> 100 nM	CC1(C)CC(=C(c2ccc(N3CCC(CN4CCN(c5ccc(NC6CCC(=O)NC6=O)cc5)CC4)CC3)nc2)c2ccc3[nH]nc(F)c3c2)CC(C)(C)O1 (stereo not shown) [Compound 88]	–	–
> 100 nM	> 100 nM	CC1(C)CC(=C(c2ccc(N3CCC(CN4CCN(c5ccc(NC6CCC(=O)NC6=O)c(F)c5)CC4)CC3)nc2)c2ccc3[nH]nc(F)c3c2)CC(C)(C)O1 (stereo not shown) [Compound 89]	–	–
–	< 10 nM	CC1(C)CC(=C(c2ccc(N3CCC(CN4CCN(c5ccc6c(c5)CN([C@H]5CCC(=O)NC5=O)C6=O)CC4)CC3)nc2)c2ccc3[nH]ncc3c2)CC(C)(C)O1 [Compound 137]	–	–
–	< 10 nM	CC1(C)CC(=C(c2ccc(N3CC4(CCN(C5CCN(c6ccc7c(c6)CN([C@@H]6CCC(=O)NC6=O)C7=O)CC5)CC4)C3)nc2)c2ccc3[nH]nc(F)c3c2)CC(C)(C)O1 [Compound 138]	–	–
–	10 to 100 nM	CC1(C)CC(=C(c2ccc(N3CC4(CCN(C5CCN(c6ccc7c(c6)CN([C@H]6CCC(=O)NC6=O)C7=O)CC5)CC4)C3)nc2)c2ccc3[nH]nc(F)c3c2)CC(C)(C)O1 [Compound 139]	–	–
–	< 10 nM	CC1(C)CC(=C(c2ccc(N3CCC(F)(CNC4CCN(c5ccc6c(c5)CN([C@@H]5CCC(=O)NC5=O)C6=O)CC4)CC3)nc2)c2ccc3[nH]nc(F)c3c2)CC(C)(C)O1 [Compound 142]	–	–
–	10 to 100 nM	CC1(C)CC(=C(c2ccc(N3CCC(F)(CNC4CCN(c5ccc6c(c5)CN([C@H]5CCC(=O)NC5=O)C6=O)CC4)CC3)nc2)c2ccc3[nH]nc(F)c3c2)CC(C)(C)O1 [Compound 143]	–	–

SMILES	GI50 (MCF-7 cells)	DC50 (ERα)	effect on body weight [1]	tumor growth inhibition [2]
CC1(C)CC(=C(c2ccc(N3CCC(CN4CCN(c5ccc6c(c5)CN(C5CCC(=O)NC5=O)C6=O)CC4)CC3)nc2)c2ccc3[nH]nc(F)c3c2)CC(C)(C)O1 (racemic) [Compound 34]	< 10 nM	< 10 nM	–	–
CC1(C)CC(=C(c2ccc(N3CCC4(CC3)CC(N3CCN(c5ccc6c(c5)CN(C5CCC(=O)NC5=O)C6=O)CC3)C4)nc2)c2ccc3[nH]nc(F)c3c2)CC(C)(C)O1 (racemic) [Compound 35]	< 10 nM	< 10 nM	–	–
CC1(C)CC(=C(c2ccc(N3CCC4(CC3)CN(C3CCN(c5ccc6c(c5)CN(C5CCC(=O)NC5=O)C6=O)CC3)C4)nc2)c2ccc3[nH]nc(F)c3c2)CC(C)(C)O1 (stereo not shown) [Compound 47]	< 10 nM	< 10 nM	–	–
CC1(C)CC(=C(c2ccc(N3CCC(F)(CNC4CCN(c5ccc6c(c5)CN(C5CCC(=O)NC5=O)C6=O)CC4)CC3)nc2)c2ccc3[nH]nc(F)c3c2)CC(C)(C)O1 (stereo not shown) [Compound 48]	< 10 nM	< 10 nM	–	–
CC1(C)CC(=C(c2ccc(N3CCC(CN4CCN(c5ccc6c(c5)CN([C@H]5CCC(=O)NC5=O)C6=O)CC4)CC3)nc2)c2ccc3[nH]nc(F)c3c2)CC(C)(C)O1 [Compound 110]	< 10 nM	< 10 nM	no effect	dose-dependent tumor growth inhibition
CC1(C)CC(=C(c2ccc(N3CCC(CN4CCN(c5ccc6c(c5)CN([C@@H]5CCC(=O)NC5=O)C6=O)CC4)CC3)nc2)c2ccc3[nH]nc(F)c3c2)CC(C)(C)O1 [Compound 119]	< 10 nM	< 10 nM	–	–
CC1(C)CC(=C(c2ccc(N3CCC4(CC3)CC(N3CCN(c5ccc6c(c5)CN([C@H]5CCC(=O)NC5=O)C6=O)CC3)C4)nc2)c2ccc3[nH]nc(F)c3c2)CC(C)(C)O1 [Compound 120]	< 10 nM	< 10 nM	no effect	dose-dependent tumor growth inhibition
CC1(C)CC(=C(c2ccc(N3CCC4(CC3)CC(N3CCN(c5ccc6c(c5)CN([C@@H]5CCC(=O)NC5=O)C6=O)CC3)C4)nc2)c2ccc3[nH]nc(F)c3c2)CC(C)(C)O1 [Compound 121]	< 10 nM	< 10 nM	–	–
CC1(C)CC(=C(c2ccc(N3CCC4(CC3)CN(C3CCN(c5ccc6c(c5)CN([C@@H]5CCC(=O)NC5=O)C6=O)CC3)C4)nc2)c2ccc3[nH]nc(F)c3c2)CC(C)(C)O1 [Compound 140]	–	< 10 nM	–	–
CC1(C)CC(=C(c2ccc(N3CCC4(CC3)CN(C3CCN(c5ccc6c(c5)CN([C@H]5CCC(=O)NC5=O)C6=O)CC3)C4)nc2)c2ccc3[nH]nc(F)c3c2)CC(C)(C)O1 [Compound 141]	–	< 10 nM	–	–
